Assay results: US5550143A, “Heterocyclic compounds” (Adir et Compagnie, priority 1992, dated 1996)
Read-outs that look alike come from different tables or passages of the source.

Tests used:
Procine pancreatic PLA2 = biological target: T1, Procine pancreatic PLA2 (Sus scrofa, UniProt P00592); assay: Inhibition of phospholipase PLA2 activity (E. coli membranes labelled with tritiated oleic acid); assay type: biochemical, pigs; settings: read-out: % Inhibition at 1 mM
T1 construct: from tissue; host or cells: porcine pancreas
T1 sequence (P00592 23-146): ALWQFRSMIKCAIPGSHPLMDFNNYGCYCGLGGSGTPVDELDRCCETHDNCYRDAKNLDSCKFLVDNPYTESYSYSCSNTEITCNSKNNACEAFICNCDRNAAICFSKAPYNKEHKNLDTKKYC
Method: PLA2 hydrolyses cell membrane phospholipids by freeing arachidonic acid (AA). Inhibition of that enzyme brings about a reduction in the amount of non-esterified free AA from which metabolites, such as leucotrienes and pro-inflammatory prostaglandins, are produced. The PLA2 activity is measured by using as substrate E. coli membranes labelled with tritiated oleic acid. Procine pancreatic PLA2 is incubated with the preparation for 30 minutes at 37° C. After centrifugation, the radioactivity of the supernatant is counted. The inhibitory activity of the compound (1 mM) is expressed in relation to the control.

TNF [1] = assay: Inhibition of the production of TNF in mice treated with LPS (amount of TNF in the serum); assay type: in vivo; settings: Mus musculus, 1 h; for inhibition in vivo at 50 mg/kg: oral, 30 min before LPS 2.5 μg i.p., compared with control group which received only LPS, read-out: % inhibition of the production of TNF after oral admin.
Method: The test is carried out on mice. Thirty minutes after the intraperitoneal or oral administration of the molecule to be tested, the mice are treated intraperitoneally with 2.5 μg of LPS from Escherichia coli. The amount of TNF in the serum is measured after 1 hour by a biological method.

[2] = test system: spontaneous motor activity; assay: Locomotive activity in mice (spontaneous motor activity); assay type: in vivo; settings: for Number of movements (as a % compared with a control group): 30 min before test, 15 min, ns p > 0.05, ** p < 0.01
Method: This test consists in determining the spontaneous motor activity of mice placed in an enclosure that constitutes a new environment and is equipped with a system of infra-red rays, the interruption of which when the animal passes through serves as a measurement criterion ("Activity monitor" Digiscan-Omnitech Electronics, Sufraco France).
The molecules are administered intraperitoneally 30 minutes before the test at doses of 1, 2, 2.5, 4, 5 and 10 mg/kg. The locomotive activity (number of movements) is measured for 15 minutes.

corticosteronemia = assay: Measurement of corticosteronemia after administration of IL-1; assay type: in vivo, mice; settings: for Reduction in hypercorticosteronemia compared with control / Hypercorticosteronemia after admin. IL-1: 30 min before 1 μg IL-1 i.p.; for Hypercorticosteronemia after admin. IL-1: measured 2 hours later
Method: Thirty minutes after the intraperitoneal administration of the molecule to be tested, the mice are treated with 1 μg of IL-1 injected intraperitoneally. Corticosteronemia is determined 2 hours later by a suitable technique. Under the same conditions, the compound and then a saline solution are administered intraperitoneally to a control group.

LPS shock = assay: Protective effect in respect of LPS shock (% survival of mice after administration of LPS); assay type: in vivo; settings: 30 min before LPS 1 μg
Method: The test is carried out on mice. The compound to be tested is administered intraperitoneally or orally. In the first protocol (i.p.), the compound is administered 30 minutes before the injection of 1 μg of LPS into mice. The mortality is determined 72 hours later.

[3] = Hypotensive effect in rats; assay type: in vivo; settings: 20 mg/kg intraperitoneally
TNF [4] = assay: Peripheral effect: amount of TNF in serum and brain of rats after intracerebroventricular LPS; assay type: in vivo; settings: Example 1 i.p. 8 mg/kg, FIG. 1
Source text: In comparison with chlorpromazine, the compounds of the invention have only a peripheral effect.

[5] = ip, read-out: % inhibition of the production of TNF after i.p. admin.
[6] = 1 mM, 30 minutes at 37° C., relative to control

| SMILES | hypotension [3] | inhibition in vivo at 50 mg/kg (TNF [1]) [%] | inhibition in vivo at 5 mg/kg (TNF [1]; [5]) [%] | Reduction in hypercorticosteronemia compared with control (corticosteronemia; 5 mg/kg i.p.) [%] | Hypercorticosteronemia after admin. IL-1 (corticosteronemia; 5 mg/kg i.p.) [ng/ml serum] | also measured |
| --- | --- | --- | --- | --- | --- | --- |
| CN(C)CCCN1c2ccccc2Sc2ccc(Cl)cc21 [Chlorpromazine, reference compound] | severe hypotension from the 15th minute onwards |  |  |  |  | inhibition at 1000 µM (Procine pancreatic PLA2): 76%; inhibition in vivo at 4 mg/kg (TNF [1]; [5]): 100%; Number of movements (as a % compared with a control group) ([2]; IP 1 mg/kg): -20%; Number of movements (as a % compared with a control group) ([2]; IP 2 mg/kg): -58%; Number of movements (as a % compared with a control group) ([2]; IP 4 mg/kg): -64%; sedative action (in words) ([2]; i.p., chlorpromazine at 2 mg/kg and above): very sedative at 2 mg/kg and above; Reduction in hypercorticosteronemia compared with control (corticosteronemia; 4 mg/kg i.p.): ~86%; Reduction in hypercorticosteronemia compared with control (corticosteronemia; 4 mg/kg i.p., listed as Chloropromazine): 85.7%; Hypercorticosteronemia after admin. IL-1 (corticosteronemia; 4 mg/kg i.p.): 63 ng/ml serum; passage through the blood/brain barrier (corticosteronemia; demonstrated by determination of corticosteronemia after IL-1): crosses the blood/brain barrier; % survival 72 h after i.p. administration (LPS shock; 1 mg/kg): 36%; % survival 72 h after i.p. administration (LPS shock; 4 mg/kg): 77%; amount of TNF in the brain (rats, intracerebroventricular LPS) (TNF [4]; brain): the amount in the brain, as is observed in rats treated with chlorpromazine; amount of TNF in the serum (rats, intracerebroventricular LPS) (TNF [4]; 8 mg/kg): reduces the amount of TNF in the serum, as does chlorpromazine |
| C[N+](C)(C)CCCN1c2ccccc2Sc2ccc(Cl)cc21.[Br-] [Example 1, N-[3-(2-chlorophenothiazin-10-yl)propyl]trimethylammonium bromide] | No hypotension is observed | 68 | 75 | 11.8 | 389 | inhibition at 1000 µM (Procine pancreatic PLA2; [6]): 72%; Number of movements (as a % compared with a control group) ([2]; IP 5 mg/kg): -20%; Number of movements (as a % compared with a control group) ([2]; IP 10 mg/kg): -9%; % survival 72 h after i.p. administration (LPS shock; 5 mg/kg): 80%; amount of TNF in the serum (rats, intracerebroventricular LPS) (TNF [4]): reduces the amount of TNF in the serum |
| C[N+](C)(C)CCCN1c2ccccc2[S+]([O-])c2ccc(Cl)cc21.[Br-] (stereo not drawn) [Example 2, N-[3-(2-chloro-5-oxo-phenothiazin-10-yl)propyl]trimethylammonium bromide] | No hypotension is observed | 60 | 50 | 5.4 | 417 |  |
| C[N+](C)(C)CCCN1c2ccccc2S(=O)(=O)c2ccc(Cl)cc21 [Example 3, N-[3-(2-chloro-5-dioxo-phenothiazin-10-yl)propyl]trimethylammonium bromide] |  |  | 69 |  |  |  |
| CC(C)[N+](C)(C)CCCN1c2ccccc2Sc2ccc(Cl)cc21 [Example 6, N-[3-(2-chlorophenothiazin-10-yl)propyl] dimethylisopropylammonium bromide] |  | 38 |  |  |  |  |
| CCCC[N+](C)(C)CCCN1c2ccccc2Sc2ccc(Cl)cc21.[Br-] [Example 7, N-[3-(2-chlorophenothiazin-10-yl)propyl] butyldimethylammonium bromide] | No hypotension is observed | 72 | 95 | 11.8 | 389 | inhibition at 1000 µM (Procine pancreatic PLA2; [6]): 97%; Number of movements (as a % compared with a control group) ([2]; IP 5 mg/kg): -43%; Number of movements (as a % compared with a control group) ([2]; IP 10 mg/kg): -63%; Number of movements (as a % compared with a control group) ([2]; IP 2,5 mg/kg): -27%; % survival 72 h after i.p. administration (LPS shock; 5 mg/kg): 40% |
| CCCC[N+](C)(C)CCCN1c2ccccc2[S+]([O-])c2ccc(Cl)cc21.[Br-] (stereo not drawn) [Example 8, N-[3-(2-chloro-5-oxo-phenothiazin-10-yl)propyl] butyldimethylammonium bromide] | No hypotension is observed | 73 | 71 | 19.3 | 356 |  |
| CCCC[N+](C)(C)CCCN1c2ccccc2S(=O)(=O)c2ccc(Cl)cc21 [Example 9, N-[3-(2-chloro-5-dioxo-phenothiazin-10-yl)propyl] butyldimethylammonium bromide] |  |  | 75 |  |  |  |
| C[N+](C)(CCCN1c2ccccc2Sc2ccc(Cl)cc21)Cc1ccccc1.[Br-] [Example 10, N-[3-(2-chlorophenothiazin-10-yl)propyl] benzyldimethylammonium bromide] |  |  | 27 | 0.2 | 440 | inhibition at 1000 µM (Procine pancreatic PLA2; [6]): 98%; % survival 72 h after i.p. administration (LPS shock; 5 mg/kg): 60% |
| O=C(O)CCCN1c2ccccc2Sc2ccc(Cl)cc21 [Example 15, 4-(2-chlorophenothiazin-10-yl)butanoic acid] |  | 55 |  |  |  |  |
| CC(C)=CCC/C(C)=C/CN1c2ccccc2Sc2ccc(Cl)cc21 [Example 26, 2-chloro-10-[(2E)-1-(3,7-dimethylocta-2,6-dienyl)]phenothiazine] |  | 55 |  |  |  |  |
| CC(C)(C)C1CCC2(CC1)CCN(CCCN1c3ccccc3Sc3ccc(Cl)cc31)C2 (stereo not drawn) [Example 27, 2-[3-(2-chlorophenothiazin-10-yl)propyl]-8-tert-butyl-2-azoniaspiro[4.5]decane chloride] |  | 26 |  |  |  |  |
| CCN(CC)CCCC(C)Nc1c2ccc(Cl)cc2nc2ccc(OC)cc12 (stereo not drawn) [Mepacrine, reference compound] |  |  |  |  |  | inhibition at 1000 µM (Procine pancreatic PLA2): 67% |
